Tested on: Phytophthora citrophthora
Experiment: Example B3: action on phytopathogenic soil fungi, growth on agar in Petri dishes
Format: cell-based
Settings: 120 h, 30 ppm, agar medium, 22° C., 5 days, read-out: inhibition of the development of the fungus

SMILES	inhibition at 30 ppm
COc1ccc(-c2c(C(=O)N3CCOCC3)sc3c(Br)cccc23)cc1OC [Compound 123]	≥ 80%
COc1ccc(-c2c(C(=O)N3CCCC(OC)C3)sc3ccccc23)cc1OC (stereo not shown) [Compound 166]	≥ 80%
COc1ccc(-c2c(C(=O)N3CCOCC3)sc3ccc(NC(C)=O)cc23)cc1OC [Compound 115]	≥ 80%
CCN(C)C(=O)c1ccc(-c2ccc(C)cc2)cc1-c1ccc2c(c1)OCO2 [Compound 230]	≥ 80%
COc1ccc(-c2nc(-c3ccccc3)ccc2C(=O)N(C)CCO)cc1OC [Compound 395]	≥ 80%
CCN(CC)C(=O)c1sc2ccccc2c1-c1ccc(OC)c(OC)c1 [Compound 107, 2-(N,N-Diethylcarboxamide)-3-(3,4-dimethoxyphenyl)benzothiophene]	≥ 80%
COc1ccc(-c2c(C(=O)N3CCOCC3)sc3ccc(NC(=O)C(F)(F)F)cc23)cc1OC [Compound 116]	≥ 80%
COc1ccc(-c2c(C(=O)N3CCOCC3)sc3c(NC(C)=O)cccc23)cc1OC [Compound 132]	≥ 80%
C=CCN(C)C(=O)c1ccc(-c2ccc(Cl)cc2)nc1-c1ccc(OC)c(OC)c1 [Compound 386]	≥ 80%
Cc1ccc(-c2ccc(C(=O)N3CCOCC3)c(-c3ccc4c(c3)OCO4)c2)cc1 [Compound 231]	≥ 80%

From patent publication US5475132A, “Antifungal agents based on amides containing a phenyl group” (Rhone-Poulenc Agrochimie, priority 1988, dated 1995)
